From US4554274A, “Nb Quaternary derivatives of ajmaline and isoajmaline, methods and intermediate products in the manufacture of their derivatives and method of using same and pharmaceutical compositions thereof” (priority 1979, dated 1985) come the findings set out here.

A short description of data set [1]: acute toxicity (LD50) in mice. The conditions noted are these: mouse, in vivo, po; male NMRI-mice, p.o., mortality on 7th day; read-out: LD50 p.o. Format: in vivo. The procedure:
(§1) The acute toxicity of the compounds is determined in male NMRI-mice (body weight range 18-22 g) after oral (p.o.) and intraperitonal (i.p.) administration. The LD50 is defined as that dose in μmol/kg which causes a 50% mortality rate of the test animals on the 7th day after application. The calculation of the LD50 is carried out by probitanalysis (see L. Cavalli-Sforza, Grundbegriffe der Biometric, Gustav Fischer Verlag Stuttgart (1964)).

Data set [2] has as its system male NMRI-mice. The data set can be described thus: acute toxicity (LD50) in mice. Conditions: i.p., mortality on 7th day. Format: in vivo. The procedure: as §1
Data set [3] has as its system male Wista rats (aconitine). Description: aconitine infusion in rats, heart rhythm disruption (Raschak). The class given is in vivo. Conditions: 1/20th of the LD50, concurrent aconitine infusion, time difference vs control. On the procedure: To determine the influence of the active ingredient on male Wista rats (weighing 280 to 350 g), infusion with aconitine according to the method of Raschak is carried out (M. Raschak, Arzneim. Forschung (Drug Research) 25 (4) (1975) pp. 639-641). The results are given as the difference (that is, the difference in time as Δ%) between the active substance and a control sample in bringing about a disruption of heart rhythms (extrasystolic (ES), ventricular tachicardiea (VT), chamber flutter (KF)). In the control sample the active ingredient is replaced by a vehicle such as isotonic NaCl-solution or solution medium. The administration of the active ingredient is in a dosage of 1/20th of the LD50 and a constant concurrent infusion per unit of time of aconitine.

Data set [4] concerns male NMRI-mice. Description: minimum symptom dose (Campbell and Richter). Format: in vivo. Conditions: i.p., changes in behavior in 2 out of 3 mice. On the procedure: The minimum symptom dose is determined in male NMRI-mice (body weight range 18-22 g) according to the procedure of Campbell and Richter (see D. E. S. Campbell and W. Richter, Acta Pharmacol. Toxicol. 25 (1967), pp. 345-363). The minimum symptom dose is defined as that dose in μmol/kg which after i.p. administration causes changes in behavior in 2 out of 3 mice. The minimum symptom dose is a measure for evaluations undesirable side effects.

The test system of the next data set is isolated left atria. Description: functional refractory period (FRP) and contraction force (CF) in isolated left atria, double stimulus method of Govier. On the set-up: species or system female guinea pigs. Conditions: Cavia porcellus, 0.3 h, isolated left atria of guinea pig, 18 minutes after application. The procedure: The prolongation of the functional refractory period (FRP) and the contraction force (CF) in the isolated left atria of female guinea pigs (albinopirbright-white guinea pigs, body weight range 300-400 g) are determined according to the double stimulus method of Govier (see W. C. Govier, J. Pharmakol, Exp. Ther. 148 (1965) pp. 100-105). The concentrations which are given in the table below are the concentrations in […] which 18 minutes after application leads to a prolongation of the functional refractory period to 125% or respectively to a reduction of the contraction force to 75% of the starting value. Furthermore the ratio between contraction force-reducing dose and functional refractory period-prolonging dose is given. This ratio is an indication of the therapeutic range of the antiarrhythmic effect on the isolated organ (see K. Greef, Verh. Dtsch. Ges. Kreislaufforsch. 35 (1969) pp. 88-97).

Counter-ions that a name gives are not always drawn.

As to `CCC1C2CC3C4N(C)c5ccc(Br)cc5C45CC(C2C5O)[N+]3(CC(O)CN2CCCCC2)C1O` (centres unmarked) [Example 22, Nb-(2-hydroxy-3-(1-piperidinyl)propyl)-10-bromoisoajmalinium hydrogen tartrate], in data set [1], the LD50 at 168 h was determined as 550 µmol/kg. This molecule also showed an LD50 i.p. in the data set with male NMRI-mice [2] of 168 µmol/kg. Besides, in data set [3], the “Aconitin-Rat, ES (extrasystolic), Δ %” value was “+154%”; the “Aconitin-Rat, KF (chamber flutter), Δ %” value is on record as “+110%”; the “Aconitin-Rat, VT (ventricular tachycardia), Δ %” value is reported as “+121%”. Also, the “Min. Symptom-dose” value in the data set on male NMRI-mice [4] was 72 µmol/kg. The EC (FRP prolonged to 125%) in the data set with isolated left atria (read-out: concentration prolonging functional refractory period (FRP) to 125% of starting value) stood at 8.1 µM. The IC25 in the data set with isolated left atria (read-out: concentration reducing contraction force (CF) to 75% of starting value) was 3.4 µM.
